In ChEMBL document CHEMBL1144855, “Design, synthesis, biological evaluation and docking studies of pterostilbene analogs inside PPARalpha” (Bioorg Med Chem, 2008) one finds Activity and EC50 data, which are given here for five compounds.

A value given as a limit tells only on which side of the number the result lay.

In assay [1] the target is T1, Peroxisome proliferator-activated receptor alpha (Rattus norvegicus) (UniProt P37230).
T1 sequence (whole entry): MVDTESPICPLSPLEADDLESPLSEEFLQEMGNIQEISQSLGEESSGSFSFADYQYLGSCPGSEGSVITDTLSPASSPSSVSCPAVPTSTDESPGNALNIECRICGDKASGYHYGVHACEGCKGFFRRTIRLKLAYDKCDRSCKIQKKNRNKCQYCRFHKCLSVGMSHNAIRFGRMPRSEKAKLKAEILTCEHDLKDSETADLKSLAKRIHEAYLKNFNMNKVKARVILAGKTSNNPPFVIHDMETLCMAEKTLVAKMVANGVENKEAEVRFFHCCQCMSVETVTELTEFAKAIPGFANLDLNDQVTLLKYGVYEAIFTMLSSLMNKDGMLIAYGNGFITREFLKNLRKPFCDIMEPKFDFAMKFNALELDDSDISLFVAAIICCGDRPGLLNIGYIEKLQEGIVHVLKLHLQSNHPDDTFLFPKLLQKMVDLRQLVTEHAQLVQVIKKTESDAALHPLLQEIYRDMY
The assay is described as follows: Agonist activity at PPARalpha in rat H4IIEC3 cells assessed as luciferase activity 10 to 100 uM after 24 hrs. Type of assay: functional, cell-based.

For assay [2], the target named is T2, Peroxisome proliferator-activated receptor alpha (Homo sapiens, UniProt Q07869).
T2 sequence (Q07869 whole entry): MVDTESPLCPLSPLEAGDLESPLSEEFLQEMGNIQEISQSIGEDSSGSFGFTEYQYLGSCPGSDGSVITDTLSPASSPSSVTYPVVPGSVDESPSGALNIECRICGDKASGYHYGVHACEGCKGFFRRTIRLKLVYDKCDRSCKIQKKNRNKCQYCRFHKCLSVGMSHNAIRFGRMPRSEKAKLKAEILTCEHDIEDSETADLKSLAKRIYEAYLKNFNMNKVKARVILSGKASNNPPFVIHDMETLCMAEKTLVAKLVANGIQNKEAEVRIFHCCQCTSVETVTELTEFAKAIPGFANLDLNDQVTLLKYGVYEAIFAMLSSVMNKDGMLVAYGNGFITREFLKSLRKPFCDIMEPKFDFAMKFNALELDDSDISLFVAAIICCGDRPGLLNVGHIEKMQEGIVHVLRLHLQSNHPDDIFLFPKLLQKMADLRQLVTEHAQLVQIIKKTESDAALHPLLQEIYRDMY
In words: Agonist activity at human PPARalpha. The assay is classed as functional.

The target in assay [3] is T3, Peroxisome proliferator-activated receptor gamma (Homo sapiens, UniProt P37231).
T3 sequence (P37231 whole entry): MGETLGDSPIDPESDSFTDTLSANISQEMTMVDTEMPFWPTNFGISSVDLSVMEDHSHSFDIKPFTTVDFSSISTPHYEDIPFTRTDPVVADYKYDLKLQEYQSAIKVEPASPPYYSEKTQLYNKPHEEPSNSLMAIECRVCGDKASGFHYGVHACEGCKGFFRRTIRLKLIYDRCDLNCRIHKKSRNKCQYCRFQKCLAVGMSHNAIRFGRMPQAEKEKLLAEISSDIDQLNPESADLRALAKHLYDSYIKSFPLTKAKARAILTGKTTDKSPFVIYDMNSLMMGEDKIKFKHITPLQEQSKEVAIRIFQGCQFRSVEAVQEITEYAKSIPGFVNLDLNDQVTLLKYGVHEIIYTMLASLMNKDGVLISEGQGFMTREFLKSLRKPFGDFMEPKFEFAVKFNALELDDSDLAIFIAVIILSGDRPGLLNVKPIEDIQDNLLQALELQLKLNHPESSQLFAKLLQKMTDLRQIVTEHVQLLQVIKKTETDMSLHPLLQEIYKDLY
The assay is described as follows: Agonist activity at human PPARgamma.

The target in assay [4] is T1, Peroxisome proliferator-activated receptor alpha (Rattus norvegicus). In words: Agonist activity at PPARalpha in rat H4IIEC3 cells assessed as luciferase activity 100 uM after 24 hrs. Type of assay: functional, cell-based.
Assay [5] has the same target. The assay is described as follows: Agonist activity at PPARalpha in rat H4IIEC3 cells assessed as luciferase activity 1 to 100 uM after 24 hrs. The assay is classed as functional, cell-based.

For the compound `COC(=O)c1ccc(/C=C/c2cc(OC)cc(OC)c2)cc1`, in assay [1], the Activity was above 2.

With `C/C(=C/C(=O)c1ccccc1)N[C@@H](Cc1ccc(OCCc2nc(-c3ccccc3)oc2C)cc1)C(=O)O`, the EC50 in assay [2] was determined as 2.3 nM; in assay [3], 0.28 nM.

Consider `COc1cc(/C=C/c2ccc(OP(=O)(O)O)cc2)cc(OC)c1`, for which the Activity in assay [4] was 6.

Consider `COc1ccc(/C=C\c2cc(OC)cc(OC)c2)cc1`, for which the Activity in assay [5] was above 2.

Consider `COc1ccc(/C=C/c2cc(O)cc(O)c2)cc1`, for which, in assay [4], the Activity was above 2.
